According to BindingDB's records for doi:10.1021/jm00365a017 (1983):

Target: Delta-type opioid receptor (Mus musculus) (UniProt P32300)
Assay: Ability to induce 50% of maximal effect in mouse vas deferens expressing Opioid receptor delta 1

Chain of Delta-type opioid receptor (Mus musculus) (P32300 whole entry, looked up): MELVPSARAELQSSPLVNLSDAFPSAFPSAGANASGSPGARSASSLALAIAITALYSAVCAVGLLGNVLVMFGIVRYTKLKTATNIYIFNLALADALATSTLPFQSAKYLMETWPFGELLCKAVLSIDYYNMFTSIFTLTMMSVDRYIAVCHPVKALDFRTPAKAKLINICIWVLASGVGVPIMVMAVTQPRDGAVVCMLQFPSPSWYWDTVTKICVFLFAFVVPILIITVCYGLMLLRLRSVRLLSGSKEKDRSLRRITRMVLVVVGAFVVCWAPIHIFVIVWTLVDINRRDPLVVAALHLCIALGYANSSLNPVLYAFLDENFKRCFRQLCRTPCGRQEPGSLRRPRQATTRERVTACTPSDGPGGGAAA

CC1C2Cc3ccc(O)cc3C1(C)CCN2CCc1ccccc1 (stereo unspecified)
IC50: 8 nM
